# From patent US20090036498A1, “FLY CONTROL METHOD” (priority 2007, published 2009)
# Assays:
# [1] = test system: Newly emerged larvae of blowfly, Lucilica sericata; test: Blowfly larvae on filter paper discs with test compound mixed in dried blood bovine serum, mortality; format: in vivo; details: Lucilia sericata, assessed at 24 hours, four replicates per data point
# Experimental: L. serricata (Insect; Blowfly) Larvae.
# Test compound (3-bromo-1-(3-chloro-2-pyridinyl)-N-[4-cyano-2-methyl-6-[(methylamino)-carbonyl]phenyl]-1H-pyrazole-5-carboxamide) was mixed with dried blood bovine serum and placed on filter paper discs. Newly emerged larvae of blowfly, Lucilica sericata were added to the filter paper, which were ingested by larvae. Activity may occur through both feeding and contact. Four replicates were run per data point. Activity was assessed at 24 hours.
# [2] = test system: Adult L. serricata (blowflies); test: Test A: adult blowflies on blood agar containing test compound, number of dead flies scored; format: in vivo, Lucilia sericata; details: 4 flies in test; for Number dead flies at 2 hours: scored at 2 hours; for Number dead flies at 4 hours: scored at 4 hours; for Number dead flies at 24 hours: scored at 24 hours
# Experimental: Adult L. serricata (blowflies): Adult flies are placed on beds of blood agar (in individual test wells; 4 flies per well) in which test compound (3-bromo-1-(3-chloro-2-pyridinyl)-N-[4-cyano-2-methyl-6-[(methylamino)carbonyl]phenyl]-1H-pyrazole-5-carboxamide) was dissolved/suspended prior to hardening of agar. Flies can take up test compound by both ingestion and contact. Assays are scored by number of dead flies at 2 hours, 4 hours, and 24 hours.
SMILES,mortality at 0.5 ppm [1] [%],Number dead flies at 2 hours ([2]; Rate 1 ppm in blood agar),Number dead flies at 4 hours ([2]; Rate 1 ppm in blood agar),Number dead flies at 24 hours ([2]; Rate 1 ppm in blood agar),Number dead flies at 2 hours ([2]; Rate 10 ppm in blood agar),Number dead flies at 4 hours ([2]; Rate 10 ppm in blood agar),Number dead flies at 24 hours ([2]; Rate 10 ppm in blood agar),Number dead flies at 2 hours ([2]; Rate 25 ppm in blood agar),Number dead flies at 4 hours ([2]; Rate 25 ppm in blood agar),Number dead flies at 24 hours ([2]; Rate 25 ppm in blood agar),Number dead flies at 2 hours ([2]; Rate 50 ppm in blood agar),Number dead flies at 4 hours ([2]; Rate 50 ppm in blood agar),Number dead flies at 24 hours ([2]; Rate 50 ppm in blood agar),Number dead flies at 2 hours ([2]; Rate 100 ppm in blood agar),Number dead flies at 4 hours ([2]; Rate 100 ppm in blood agar),Number dead flies at 24 hours ([2]; Rate 100 ppm in blood agar)
"CNC(=O)c1cc(C#N)cc(C)c1NC(=O)c1cc(Br)nn1-c1ncccc1Cl [Test compound, 3-bromo-1-(3-chloro-2-pyridinyl)-N-[4-cyano-2-methyl-6-[(methylamino)-carbonyl]phenyl]-1H-pyrazole-5-carboxamide]",90 to 100,0,0,0,0,0,1,0,0,2,0,0,3,0,0,3
"N#Cc1nn(-c2c(Cl)cc(C(F)(F)F)cc2Cl)c(N)c1[S+]([O-])C(F)(F)F (stereo not drawn) [Fipronil, (.+−.)-5-amino-1-(2,6-dichloro-α,α,α-triflu-oro-p-tolyl)-4-trifluoromethyl-sulphinylpyrazol-3-carbonitrile, reference compound]",90 to 100,–,–,–,–,–,–,–,–,–,–,–,–,–,–,–
CCOP(=S)(OCC)Oc1nc(Cl)c(Cl)cc1Cl [Chloropyriphos],–,0,1,4,1,4,4,3,4,4,4,4,4,4,4,4
